Data taken from patent US20190119282A1, “IMIDAZOPYRIDAZINES USEFUL AS INHIBITORS OF THE PAR-2 SIGNALING PATHWAY” (Vertex Pharmaceuticals Incorporated, priority 2013, published 2019).
Marks after values point to notes of the source that are not given here.

How the values were obtained:
[1] = biological target: T1, PAR2 (HT-29 cells, SLIGKV activation) (Homo sapiens, UniProt P55085); assay: Ca FLIPR TETRA assay, ANTAGONIST mode, stimulation with 8 μM SLIGKV; type: cell-based; settings: HT-29 cells, antagonist mode
T1 construct: host or cells: HT-29 cells
T1 sequence (P55085 26-397): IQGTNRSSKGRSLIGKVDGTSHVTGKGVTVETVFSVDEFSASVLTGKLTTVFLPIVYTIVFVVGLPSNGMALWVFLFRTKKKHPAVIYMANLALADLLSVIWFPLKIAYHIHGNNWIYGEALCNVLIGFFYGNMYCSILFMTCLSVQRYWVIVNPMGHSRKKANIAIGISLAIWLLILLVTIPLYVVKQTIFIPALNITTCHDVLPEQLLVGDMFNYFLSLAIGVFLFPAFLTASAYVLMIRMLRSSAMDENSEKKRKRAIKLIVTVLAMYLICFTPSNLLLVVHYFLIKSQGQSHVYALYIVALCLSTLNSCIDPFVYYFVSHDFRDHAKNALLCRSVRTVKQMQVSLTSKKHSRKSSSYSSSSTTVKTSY
Outline: (§1)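 Antagonist-mode FLIPR Tetra Ca2+ readout: after 30 min r.t. compound pre-incubation, HT-29 cells are challenged with trypsin (3.1 U/mL final), SLIGKV (8 μM), thrombin (1 U/mL) or UTP (0.6 μM). Cells were plated overnight in 1% FBS medium and dye-loaded with Calcium 5; an initial read checks compound agonism.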

[2] = biological target: T2, PAR2 (HT-29 cells, trypsin activation) (Homo sapiens, UniProt P55085); assay: Ca FLIPR TETRA assay, ANTAGONIST mode, stimulation with 3.1 U/mL trypsin; type: cell-based; settings: HT-29 cells, antagonist mode
T2 construct: host or cells: HT-29 cells
T2 sequence (P55085 26-397): T1 sequence (P55085 26-397)
Outline: as §1

[3] = system: Thrombin-stimulated Ca2+ response in HT-29 cells; assay: Ca FLIPR TETRA assay, ANTAGONIST mode, stimulation with 1 U/mL Thrombin; type: cell-based, human; settings: Homo sapiens, HT-29 cells, antagonist mode
Outline: as §1

[4] = system: UTP-stimulated Ca2+ response in HT-29 cells; assay: Ca FLIPR TETRA assay, ANTAGONIST mode, stimulation with 0.6 μM UTP; type: cell-based, human; settings: Homo sapiens, HT-29 cells, antagonist mode
Outline: as §1

[5] = system: carrageenan-induced paw edema; assay: Rat carrageenan-induced paw edema model; type: in vivo, Sprague Dawley rats; settings: given before carrageenan challenge
Method: Male Sprague Dawley rats and BALB/c mice were housed in groups in a temperature controlled room and were acclimatized in the animal facility for at least three days prior to use. Experiments were performed during the light phase of the cycle. Animals have food and water ad libitum.
Example 63: Rat Carrageenan-Induced Paw Edema Model
Peripheral inflammation was induced by intra-plantar administration of 100 ul of a 1% w/volume (in saline) carrageenan solution under isoflurane anesthesia. The degree of swelling was assessed using the plethysmometer at 2-3-4-5-6 h after carrageenan injection. Test compound or vehicle (0.5% MC/0.1% SDS) was systemically administered at the indicated doses in a volume of 5 mL/kg either I-3 hour before carrageenan challenge (Table 9) or 2 hours post carrageenan challenge (Table 10).
Data are expressed as the mean % effect. Statistical significance was assessed using t-test for comparison between naive and inflamed rats, and one-way ANOVA followed by post-hoc comparison test for overall drug effectiveness. A difference between groups is considered significant with a p value of <0.05. *, p<0.05; **, p<0.01; ***, p<0.001 vs. vehicle.

[6] = In vivo rat pharmacokinetics (intravenous and oral); settings: plasma; for clearance: intravenous 0.5 to 1 mg/kg, read-out: Clp; for Vd: intravenous, read-out: Vss; for bioavailability: oral by gavage; for half-life: read-out: T ½ (converted)
Method: Example 61: Protocol for Testing PAR2 Compounds In Vivo Rat Pharmacokinetics Experiments
Compounds delivered by intravenous route were formulated using a solution formulation consisting of 5% N-methylpyrrolidone 10% Vitamin E-TPGS and 85% water (v/v/) or a solution formulation consisting of 25% N-methylpyrrolidone 35% polyethylene glycol 400 and 40% water (v/v/). Intravenous formulations were administered by a bolus injection (over approximately 10 seconds) using a hypodermic needle attaches to a syringe (tail vein). The dose volume was varied from 1 to 2 mL/kg and the dose was varied from 0.5 to 1 mg/kg. Compounds delivered orally were formulated as a solution formulation consisting of 5% N-methylpyrrolidone 10% Vitamin E-TPGS and 85% water (v/v/) or as fine suspension using a cellulose derivative suspending agent with or without the addition of a wetting agent/surfactant. Milling of large particles was performed as needed to reduce particle size using focused electroacoustic milling, homogenization or low energy media milling. A spray-dried solid dispersion was prepared for key compounds using 1:1 combination with cellulose derivatives. Test compounds were administered orally by gavage using a gavage plastic needle attached to a syringe. The dose volume was varied from 5 to 10 mL/kg and the dose was varied from 1 to 600 mg/kg.
Rats were bled by venipuncture (jugular vein) and the samples were collected into tubes containing K3EDTA. The tubes were placed on wet ice until processed. The samples were centrifuged for approximately 10 minutes (at approximately 4° C.) within approximately 30 minutes of collection to prepare plasma or diluted in citrate buffer (1:3) and stored frozen (approximately −30° C.). Thawed plasma or whole blood samples were extracted by protein precipitation using an organic solvent followed by centrifugation. The supernatants were separated by high-performance liquid chromatography coupled to mass spectrometry detection. A calibration curve was prepared using reference standard compounds spiked into either blank plasma or whole blood matrices and extracted similarly to unknown samples. Pharmacokinetic parameters were calculated using non-compartmental analysis.

[7] = stimulation with 3.1 U/mL trypsin
[8] = stimulation with 1 U/mL Thrombin

Compound | IC50 ([1]; stimulation with 8 μM SLIGKV) | IC50 [2, 7] | IC50 [3, 8] | IC50 ([4]; stimulation with 0.6 μM UTP) | % inhibition of carrageenan induced paw edema ([5]; dose 20 mg/kg) | % inhibition of carrageenan induced paw edema ([5]; dose 5 mg/kg) | clearance [6] | Vd [6] | bioavailability [6] | half-life [6] | % inhibition of carrageenan induced paw edema ([5]; dose 50 mg/kg) | % inhibition of carrageenan induced paw edema ([5]; dose 10 mg/kg) | IC50 ([1]; 8 μM SLIGKV) | IC50 ([2]; 3.1 U/mL trypsin) | IC50 ([3]; 1 U/mL Thrombin) | IC50 ([4]; 0.6 μM UTP) | % inhibition of carrageenan induced paw edema ([5]; dose 7 mg/kg)
CC(C)(C)c1cc(-c2ccc(C(F)(F)F)cc2)nn2cc(C(=O)N3CCN(c4cn[nH]c4)C(=O)C3(C)C)nc12 [Compound I-366] | 2.2 nM | 2.5 nM | > 1000 nM | > 1000 nM | 43** % | – | – | – | – | – | – | – | – | – | – | – | –
CC(C)(C)c1cc(-c2ccc(F)cc2)nn2cc(C(=O)N3CCN(c4cn[nH]c4)C(=O)C3(C)C)nc12 [Compound I-310] | 0.6 nM | 1 nM | > 1000 nM | 880 nM | – | 25** % | – | – | – | – | – | – | – | – | – | – | –
Cc1cc(-c2cc(C(C)(C)C)c3nc(C(=O)N4CCN(c5cn[nH]c5)C(=O)C4(C)C)cn3n2)ccc1F [Compound I-417] | 2.5 nM | 3.2 nM | > 1000 nM | > 1000 nM | 32** % | – | – | – | – | – | – | – | – | – | – | – | –
CC(C)c1cc(-c2ccc(C(F)(F)F)c(F)c2)nn2cc(C(=O)N3CCN(C(=O)C(C)(C)O)CC3(C)C)nc12 [Compound I-252] | 2.6 nM | 6.7 nM | > 1000 nM | > 1000 nM | – | – | 4.17 mL/min/kg | 1.49 L/kg | 92% | 5.85 h | – | – | – | – | – | – | –
Cc1n[nH]c(C(=O)N2CCN(C(=O)c3cn4nc(-c5ccc(F)cc5)cc(C(C)(C)C)c4n3)CC2)n1 [Compound I-525] | 116 nM | 247 nM | > 1000 nM | > 1000 nM | – | – | – | – | – | – | 9% | – | – | – | – | – | –
CC(C)(C)c1cc(-c2ccc(F)cc2)nn2cc(C(=O)N3CCN(C(=O)c4cn[nH]c4)CC3(C)C)nc12 [Compound I-228] | 0.6 nM | 0.8 nM | 590 nM | 590 nM | – | – | – | – | – | – | – | 48** % | – | – | – | – | –
CC(C)(C)c1cc(-c2ccc(F)cc2)nn2cc(C(=O)N3CCN(C(=O)[C@H]4CC[C@@](C)(C(=O)O)CC4)CC3(C)C)nc12 [Compound I-563, (1S,4S)-4-(4-(8-(tert-butyl)-6-(4-fluorophenyl)imidazo[1,2-b]pyridazine-2-carbonyl)-3,3-dimethylpiperazine-1-carbonyl)-1-methylcyclohexane-1-carboxylic acid] | – | – | – | – | – | – | 61.7 mL/min/kg | 1.19 L/kg | 15% | 0.413 h | – | – | 0.3 nM | 0.4 nM | > 1000 nM | > 1000 nM | –
CC(C)c1cc(-c2ccc(C(F)(F)F)cc2)nn2cc(C(=O)N3CCNC(=O)C3(C)C)nc12 [Compound I-241] | 1.7 nM | 2 nM | > 1000 nM | > 1000 nM | – | – | – | – | – | – | – | – | – | – | – | – | 17** %
CC(C)(C)c1cc(C2CCC(F)(F)CC2)nn2cc(C(=O)N3CCN(C(=O)[C@H]4C[C@@](C)(O)C4)CC3(C)C)nc12 [Compound I-452, [8-tert-butyl-6-(4,4-difluorocyclohexyl)imidazo[1,2-b]pyridazin-2-yl]-[4-(3-hydroxy-3-methyl-cyclobutanecarbonyl)-2,2-dimethyl-piperazin-1-yl]methanone] | 3.3 nM | 6.2 nM | 7850 nM | 11600 nM | – | – | 7.24 mL/min/kg | 1.96 L/kg | 67% | 3.62 h | – | – | – | – | – | – | –
